Literature values as cited in patent US8106028B2, “MicroRNA-21 antagonists and its target PDCD4 for use in the treatment of a glioma” (Trustees of Dartmouth College, priority 2009, dated 2012).

System: PDCD4
Settings: breast cancer cells; Afonja, et al. (2004)

CC1(C)CCC(C)(C)c2cc(C(=O)Nc3ccc(C(=O)O)cc3)ccc21 [Am580]
expression of PDCD4: stimulate the expression of PDCD4
